Consider 22 molecules from patent US20240294542A1, “NLRP3 INFLAMMASOME INHIBITOR AND APPLICATION THEREOF” (TransThera Sciences (Nanjing), Inc., priority 2021, published 2024).

Each structure is given as a SMILES string.

One may read the IC50 as the concentration needed to halve the response being measured.

This test has as its system NLRP3 inflammasomes. Kind of test: Inhibitory activity against NLRP3 inflammasome in THP-1 cells (LPS/nigericin stimulation, IL-1β ELISA). Format: cell-based. The note with it: PMA-differentiated THP-1 cells; LPS 500 ng/mL 3 h, compound 1 h, nigericin 10 μg/mL 30 min; human IL-1β in supernatant by Elisa; read-out: IC50 (nM), inhibitory activities against NLRP3 in THP-1 cells. The procedure: Test Samples: The compounds of the present invention prepared according to exemplary methods.
THP-1 is Immortalized Human Macrophage Cell Line
• Test instrument: microplate reader (made from PE)
• 1. […] Culture plate coating: 100 μL polylysine solution was added into a 96-well cell culture plate, and the reaction was carried out at 37° C. for 30 min. The solution was discarded, and PBS was washed twice for later use. • 3. […] The resulting mixture was uniformly mixed, and finally diluted by 1:1000 times, and the cells were placed in a carbon dioxide cell incubator at 37° C. and cultured for 1 h. • c. Nigericin was added to each well at a final concentration of 10 μg/mL, and the plate was placed in a carbon dioxide cell incubator at 37° C. and cultured for 30 min. • d. The media in wells were transferred to a new culture plate, and then the plate was centrifuged at 3000 rpm for 5 min. Then the supernatant was transferred to a new 96-well plate. • e. The collected cell culture supernatant samples were tested for the content of human IL-1β by using a commercial Elisa kit, as specified in the instructions.
Take `CN1CCC[C@@H](Nc2nnc(-c3ccc(C4CC4)cc3O)c3ccccc23)C1` [Compound 72, (R)-5-cyclopropyl-2-(4-((1-methylpiperidin-3-yl)amino)phthalazin-1-yl)phenol]: the IC50 came out at 1 nM.

For `CN1CCC[C@@H](Nc2nnc(-c3ccc(Br)cc3O)c3ccccc23)C1` [Compound 73, (R)-5-bromo-2-(4-((1-methylpiperidin-3-yl)amino)phthalazin-1-yl)phenol], the concentration for half-maximal inhibition (IC50) was 1 nM.

As for `COc1ccc(-c2nnc(N[C@@H]3CCCN(C)C3)c3ccccc23)c(O)c1` [Compound 74, (R)-5-methoxy-2-(4-((1-methylpiperidin-3-yl)amino)phthalazin-1-yl)phenol], the 50% inhibitory concentration (IC50) is 6 nM.

Regarding `CN1CCC[C@@H](Nc2nnc(-c3ccc(C#N)cc3O)c3ccsc23)C1` [Compound 77, (R)-3-hydroxy-4-(7-((1-methylpiperidin-3-yl)amino)thieno[2,3-d]pyridazin-4-yl)benzonitrile], the concentration for half-maximal inhibition (IC50) amounted to 2 nM.

With `CN1CCC[C@@H](Nc2nnc(-c3ccc(C#N)cc3O)c3sccc23)C1` [Compound 78, (R)-3-hydroxy-4-(4-((1-methylpiperidin-3-yl)amino)thieno[2,3-d]pyridazin-7-yl)benzonitrile], the concentration for half-maximal inhibition (IC50) is 2 nM.

Regarding `CN1CCC[C@@H](Nc2nnc(-c3ccc(C#N)cc3O)c3ccncc23)C1` [Compound 79, (R)-3-hydroxy-4-(4-((1-methylpiperidin-3-yl)amino)pyrido[3,4-d]pyridazin-1-yl)benzonitrile], the IC50 stood at 13 nM.

On to `CN1CCC[C@@H](Nc2nnc(-c3ccc(C(F)F)cc3O)c3ccccc23)C1` [Compound 87, (R)-5-(difluoromethyl)-2-(4-((1-methylpiperidin-3-yl)amino)phthalazin-1-yl)phenol], for which the concentration for half-maximal inhibition (IC50) turned out to be 2 nM.

With `Cc1ccc2c(-c3ccc(Br)cc3O)nnc(N[C@@H]3CCCN(C)C3)c2c1` [Compound 88, (R)-5-bromo-2-(6-methyl-4-((1-methylpiperidin-3-yl)amino)phthalazin-1-yl)phenol], the 50% inhibitory concentration (IC50) was 1 nM.

In the case of `CN1CCC[C@@H](Nc2nnc(-c3ccc(C4CC4)cc3O)c3ccc(C#N)cc23)C1` [Compound 89, (R)-1-(4-cyclopropyl-2-hydroxyphenyl)-4-((1-methylpiperidin-3-yl)amino)phthalazine-6-carbonitrile], the IC50 was 7 nM.

In the case of `Cc1ccc2c(-c3ccc(C4CC4)cc3O)nnc(N[C@@H]3CCCN(C)C3)c2c1` [Compound 90, (R)-5-cyclopropyl-2-(6-methyl-4-((1-methylpiperidin-3-yl)amino)phthalazin-1-yl)phenol], the 50% inhibitory concentration (IC50) stood at 7 nM.

In the case of `CN1CCC[C@@H](Nc2nnc(-c3ccc(C4CC4)cc3O)c3ccncc23)C1` [Compound 95, (R)-5-cyclopropyl-2-(4-((1-methylpiperidin-3-yl)amino)pyrido[3,4-d]pyridazin-1-yl)phenol], the IC50 was 1 nM.

With `CN1CCC[C@@H](Nc2nnc(-c3ccc(Cl)cc3O)c3ccccc23)C1` [Compound 101, (R)-5-chloro-2-(4-((1-methylpiperidin-3-yl)amino)phthalazin-1-yl)phenol], the IC50 is 5 nM.

Turning to `N#Cc1ccc(-c2nnc(N[C@@H]3CCCN(C4CC4)C3)c3ccccc23)c(O)c1` [Compound 111, (R)-4-(4-((1-cyclopropylpiperidin-3-yl)amino)phthalazin-1-yl)-3-hydroxybenzonitrile], the IC50 came to 4 nM.

Turning to `N#Cc1ccc(-c2nnc(N[C@@H]3CCCOC3)c3ccccc23)c(O)c1` [Compound 112, (R)-3-hydroxy-4-(4-((tetrahydro-2H-pyran-3-yl)amino)phthalazin-1-yl)benzonitrile], the half-maximal inhibitory concentration (IC50) was 16 nM.

In the case of `C[C@]1(O)C[C@@H](Nc2nnc(-c3ccc(C#N)cc3O)c3ccccc23)C1` [Compound 116, 3-hydroxy-4-(4-(((cis)-3-hydroxy-3-methylcyclobutyl)amino)phthalazin-1-yl)benzonitrile], the 50% inhibitory concentration (IC50) was 21 nM.

In the case of `Cc1cc(C#N)ccc1-c1nnc(N[C@@H]2CCCN(C)C2)c2ccccc12` [Compound 118, (R)-3-methyl-4-(4-((1-methylpiperidin-3-yl)amino)phthalazin-1-yl)benzonitrile], the IC50 came out at 23 nM.

On to `CN1C[C@H](F)C[C@@H](Nc2nnc(-c3ccc(C#N)cc3O)c3ccccc23)C1` [Compound 123, 4-(4-(((3R,5R)-5-fluoro-1-methylpiperidin-3-yl)amino)phthalazin-1-yl)-3-hydroxybenzonitrile], for which the 50% inhibitory concentration (IC50) is 6 nM.

With `N#Cc1ccc(-c2nnc(N[C@@H]3CCCN(C4CCOCC4)C3)c3ccccc23)c(O)c1` [Compound 124, (R)-3-hydroxy-4-(4-((1-(tetrahydro-2H-pyran-4-yl)piperidin-3-yl)amino)phthalazin-1-yl)benzonitrile], the IC50 turned out to be 5 nM.

For `CC(C)N1CCC[C@@H](Nc2nnc(-c3ccc(C#N)cc3O)c3ccccc23)C1` [Compound 125, (R)-3-hydroxy-4-(4-((1-isopropylpiperidin-3-yl)amino)phthalazin-1-yl)benzonitrile], the IC50 is 3 nM.

As for `CC(C)(O)CN1CCC[C@@H](Nc2nnc(-c3ccc(C#N)cc3O)c3ccccc23)C1` [Compound 126], the IC50 was found to be 5 nM.

With `N#Cc1ccc(-c2nnc(N[C@@H]3CCCN(CCO)C3)c3ccccc23)c(O)c1` [Compound 127, (R)-3-hydroxy-4-(4-((1-(2-hydroxyethyl)piperidin-3-yl)amino)phthalazin-1-yl)benzonitrile], the half-maximal inhibitory concentration (IC50) is 4 nM.

As for `C[C@]1(O)C[C@@H](Nc2nnc(-c3ccc(C(F)(F)F)cc3O)c3ccccc23)C1` [Compound 129, 2-(4-(((cis)-3-hydroxy-3-methylcyclobutyl)amino)phthalazin-1-yl)-5-(trifluoromethyl)phenol], the IC50 was 4 nM.
